{
  "source": "patent US20030105045A1",
  "about": "“Artificial transcriptional factors and methods of use” (priority 2000, published 2003)",
  "key": {"[1]": {"tested_on": "ATF assay template containing five ATF binding sites in the promoter", "test": "In vitro run-off transcription assay with HeLa crude nuclear extract, ATF assay template", "assay_type": "biochemical", "conditions": "for level/strength of transcriptional activation in words (compared with GAL4-VP16 or basal): ATF assay template", "description": "(§1) Two 26-base oligonucleotides having the sequence of SEQ. ID NO: 9 and SEQ. ID NO: 10 were annealed and ligated to yield a series of double-stranded DNA fragments containing multiple binding sites for triple-helix formation. A fragment containing 5 copies of the site as shown in the duplex of SEQ ID NO: 9 and SEQ ID NO: 10 was purified by agarose gel electrophoresis and inserted into the HindIII restriction site in the polylinker of an embodiment of the G5E4T series of transcription templates.\n(§2) In FIG. 3A, the control template contains […] five GAL4 and five ATF binding sites incorporated in the promoter at −53 and −155 bp relative to the +1 transcription start site, respectively; and in FIG. 3B the ATF assay template contains five ATF binding sites incorporated at −65 bp.\nThe resulting plasmids were linearized by digestion with EcoRI, purified and the linear templates were stored in ultra-pure water at −20° C. The transcription assay was initiated by incubation of 200 ng of linearized transcription templates with ATFs in the binding buffer containing 10 mM Tris pH 8, 40 mM MgCl2 and 100 mM KCl at room temperature for 24 hours. The total volume of binding reaction was 5 microliters. After binding reaction, salt and buffer conditions were adjusted by the addition of 5 microliters of water, 6 microliters of 1×HeLa buffer (20 mM HEPES pH 7.9, 100 mM KCl, 0.2 mM EDTA, 0.5 mM DTT, 20% glycerol) and 5 microliters of HeLa crude nuclear extract (Promega, Madison Wis.). An aliquot of GAL4-VP16 protein (1 microliter total) was added to the control templates and all reactions were pre-incubated for 10 minutes at 30 degrees C. The transcription was initiated by the addition of 1 microliter of a mixture of ribonucleotide triphosphates (ATP, CTP, GTP, 10 mM each) and 0.5 microliters of ^32P-alpha-UTP (NEN, Boston, Mass.). After further incubation at 30° C. for 30 minutes all transcription reactions were terminated by the addition of 100 microliters of stop buffer (0.5 M sodium acetate, 0.2% SDS, 10 mM EDTA, 1 microgram/ml glycogen, 1 microgram/ml Proteinase K). The reactions were vortexed, incubated at 37° C. for 10 minutes, extracted with phenol/chloroform, and precipitated with 250 microliters of ice-cold ethanol. The pellets were dissolved in 20 microliters of standard denaturing formamide/dye mix and were loaded and run on a denaturing 6% polyacrylamide gel.\n(§3) The templates for in vitro transcription were made by inserting 5 direct repeats of a triple helix binding DNA sequence having a sequence of SEQ ID NO: 11 (5′[…]3′) into the Hind III restriction site in the polylinker of the GnE4T series of transcription templates (Lin, Y. S. et al., Cell 5A: 659-664 (1988)). […] The quantitation of signals was performed with Fuji MacBAS software."}, "[2]": {"tested_on": "control template containing five GAL4 binding sites", "test": "In vitro run-off transcription assay with HeLa crude nuclear extract, control template", "assay_type": "biochemical", "conditions": "data not shown", "description": "as §1, §2\nThe resulting plasmids were linearized by digestion with EcoRI, purified and the linear templates were stored in ultra-pure water at −20° C. […]\nas §3"}, "[3]": {"tested_on": "transcription template with 5 copies of ATF binding sites upstream of minimal HSV thymidine kinase promoter driving CAT reporter gene, BHK-21 cells", "test": "Transient cotransfection CAT reporter assay in BHK-21 cells, template with ATF binding sites", "assay_type": "cell-based", "conditions": "50 nM ATFs, 1 microgram plasmid, LipofectAMINE, harvested 48 hours after transfection", "description": "The ability of ATFs to activate transcription in vivo was examined by transient cotransfection assays in BHK-21 tissue culture cells. As a control template, a reporter construct containing the minimal HSV thymidine kinase promoter driving the expression of chloramphenicol acetyl transferase (CAT) reporter gene was used. The transcription template was constructed by incorporating the oligonucleotide with 5 copies of ATF binding sites in between the HindIII and BamHI restriction sites of the polylinker upstream of the control template promoter (FIG. 6A). The transfection mixture contained 1 microgram of the plasmid DNA and 50 nM ATFs. Transfections were performed by using polycationic lipid LipofectAMINE (Life Technologies). Cells were harvested 48 hours after transfection and CAT assays were performed using FAST CAT (Molecular Probes, Inc.) as substrate, and visualized and quantitated on a Fluorimager (Molecular Dynamics). Each reporter construct shown in FIG. 6A was transfected into cells with and without ATF molecules and the activation signal was measured with standard methods."}, "[4]": {"tested_on": "GAL4 DNA-binding domain fusion", "conditions": "cited from earlier work"}},
  "data": [
    {"substance": "ATF(29): 22-mer TFO (SEQ ID NO:5), 5′ polyglycol linker, crosslinker-coupled 29 amino acid VP16 peptide (SEQ ID NO:8) (chain 1 ttgtggtgggtggggtgtgggt; chain 2 CGSDALDDFDLDMLGSDALDDFDLDMLGS; polyglycol linker, crosslinker conjugation; synthetic composition useful as artificial transcriptional factor)", "values": [
      {"measurement": "level/strength of transcriptional activation in words (compared with GAL4-VP16 or basal)", "setting": "[1]; FIG. 4 and FIG. 5", "value": "comparable to the level that could be obtained with GAL4-VP16"},
      {"measurement": "level/strength of transcriptional activation in words (compared with GAL4-VP16 or basal)", "setting": "[1]; FIG. 4 and FIG. 5, listed as ATF", "value": "equal to, if not higher than"},
      {"measurement": "ATF concentrations at which these levels of activation (30-40 fold) are obtained", "setting": "[1]; further increase in concentration leads to diminishing activation", "value": "2 to 40", "unit": "nM"},
      {"measurement": "activation of transcription above basal level", "setting": "[1]; linearized template with five ATF binding sites, quantitation of 250 base RNA transcript", "value": "30-40 fold"},
      {"measurement": "activation of transcription from control templates or other templates lacking ATF binding sites", "setting": "[2]", "value": "does not activate transcription"},
      {"measurement": "transcriptional activation above the basal level", "setting": "[3]", "value": 5, "unit": "fold"}
    ]},
    {"substance": "CGSDALDDFDLDML (synthetic composition useful as artificial transcriptional factor) [14-mer peptide derived from VP16]", "values": [
      {"measurement": "activity when fused to the GAL4 DNA binding domain through recombinant DNA techniques", "setting": "[4]; Seipel et al.", "value": "inactive"}
    ]},
    {"substance": "CGSDALDDFDLDMLGSDALDDFDLDMLGS (synthetic composition useful as artificial transcriptional factor) [SEQ ID NO: 8]", "values": [
      {"measurement": "activity retained relative to full-length VP 16 when fused to the GAL4 DNA-binding domain", "setting": "[4]; Seipel et al. 1992, Nyanguile et al. 1997", "value": "about 70%"}
    ]}
  ]
}
